Assay results: ChEMBL document CHEMBL1137690, “Novel amide derivatives as inhibitors of histone deacetylase: design, synthesis and SAR” (Eur J Med Chem, 2009)

Tests used:
Histone deacetylase = assay: Inhibition of HDAC from human HeLa cells; type: cell-based
HeLa = assay: Antiproliferative activity against human HeLa cells after 4 hrs by WST-1 assay; type: functional, cell-based
P388 [1] = assay: Antitumor activity in mouse P388 cells xenografted B6D2F1 mouse assessed as increase in life span at 100 mg/kg/day, ip administered 3 to 7 days postxenografting; type: functional; details: route intraperitoneal
P388 [2] = assay: Antitumor activity in mouse P388 cells xenografted B6D2F1 mouse assessed as increase in life span at 20 mg/kg/day, ip administered 3 to 7 days postxenografting; type: functional; details: route intraperitoneal
P388 [3] = assay: Antitumor activity in mouse P388 cells xenografted B6D2F1 mouse assessed as increase in life span at 60 mg/kg/day, ip administered 3 to 7 days postxenografting; type: functional; details: route intraperitoneal
[4] = biological target: Histone deacetylase (Homo sapiens) (UniProt Q13547+O15379+Q9UBN7+Q92769+Q9UQL6+Q8WUI4+Q9BY41+Q96DB2+P56524+Q9UKV0+Q969S8); assay: Inhibition of HDAC from human HeLa cells at 500 nM
Histone deacetylase 1 = Histone deacetylase 1 (Homo sapiens, UniProt Q13547); assay: Inhibition of human recombinant HDAC1
Histone deacetylase 2 = Histone deacetylase 2 (Homo sapiens, UniProt Q92769); assay: Inhibition of human recombinant HDAC2
Histone deacetylase 3 = Histone deacetylase 3 (Homo sapiens, UniProt O15379); assay: Inhibition of human recombinant HDAC3
Histone deacetylase 4 = Histone deacetylase 4 (Homo sapiens, UniProt P56524); assay: Inhibition of human recombinant HDAC4
[5] = biological target: T1, Protein deacetylase HDAC6 (Homo sapiens, UniProt Q9UBN7); assay: Inhibition of human recombinant HDAC6
T1 sequence (Q9UBN7 whole entry): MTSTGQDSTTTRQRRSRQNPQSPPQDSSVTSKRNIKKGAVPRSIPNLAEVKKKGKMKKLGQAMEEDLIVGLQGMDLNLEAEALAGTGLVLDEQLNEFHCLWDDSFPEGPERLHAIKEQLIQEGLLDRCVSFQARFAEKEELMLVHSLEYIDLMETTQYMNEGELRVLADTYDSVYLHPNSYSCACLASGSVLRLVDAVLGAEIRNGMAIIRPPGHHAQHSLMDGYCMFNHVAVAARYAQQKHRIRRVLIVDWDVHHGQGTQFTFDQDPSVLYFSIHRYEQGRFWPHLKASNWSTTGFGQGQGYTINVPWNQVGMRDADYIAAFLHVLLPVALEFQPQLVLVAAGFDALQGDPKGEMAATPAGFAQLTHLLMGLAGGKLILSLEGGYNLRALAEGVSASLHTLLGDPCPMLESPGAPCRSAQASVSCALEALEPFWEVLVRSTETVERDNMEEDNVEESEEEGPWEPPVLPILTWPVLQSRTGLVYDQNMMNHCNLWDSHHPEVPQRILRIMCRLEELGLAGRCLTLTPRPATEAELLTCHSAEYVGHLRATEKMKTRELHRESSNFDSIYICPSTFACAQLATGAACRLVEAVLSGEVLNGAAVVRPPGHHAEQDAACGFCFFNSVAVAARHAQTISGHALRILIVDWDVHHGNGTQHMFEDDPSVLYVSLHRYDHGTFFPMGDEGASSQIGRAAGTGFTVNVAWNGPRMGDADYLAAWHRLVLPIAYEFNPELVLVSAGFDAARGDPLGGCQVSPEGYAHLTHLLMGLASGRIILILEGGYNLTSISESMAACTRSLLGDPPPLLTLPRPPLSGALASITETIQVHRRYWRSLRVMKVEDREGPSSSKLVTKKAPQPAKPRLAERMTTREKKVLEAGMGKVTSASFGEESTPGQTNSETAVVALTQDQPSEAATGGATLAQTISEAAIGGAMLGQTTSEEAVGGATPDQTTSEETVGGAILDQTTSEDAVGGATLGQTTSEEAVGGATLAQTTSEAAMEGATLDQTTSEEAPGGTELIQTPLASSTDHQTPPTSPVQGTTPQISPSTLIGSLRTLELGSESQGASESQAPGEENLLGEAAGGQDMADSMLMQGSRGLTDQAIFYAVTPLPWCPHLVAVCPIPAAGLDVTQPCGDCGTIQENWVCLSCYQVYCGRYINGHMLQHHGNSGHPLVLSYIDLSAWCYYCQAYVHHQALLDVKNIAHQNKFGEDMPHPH

Histone deacetylase 8 = biological target: T2, Histone deacetylase 8 (Homo sapiens, UniProt Q9BY41); assay: Inhibition of human recombinant HDAC8
T2 sequence (Q9BY41 whole entry): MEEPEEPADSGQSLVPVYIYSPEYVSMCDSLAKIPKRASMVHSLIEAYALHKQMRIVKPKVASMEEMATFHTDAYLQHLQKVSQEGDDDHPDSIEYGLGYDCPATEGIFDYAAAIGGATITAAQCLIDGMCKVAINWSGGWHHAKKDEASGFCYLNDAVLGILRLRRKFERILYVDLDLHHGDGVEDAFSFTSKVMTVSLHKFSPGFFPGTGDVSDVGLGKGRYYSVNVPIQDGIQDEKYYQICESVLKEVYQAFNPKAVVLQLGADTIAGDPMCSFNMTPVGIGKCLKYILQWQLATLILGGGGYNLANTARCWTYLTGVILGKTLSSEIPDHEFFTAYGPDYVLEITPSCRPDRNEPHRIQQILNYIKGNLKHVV

Histone deacetylase 9 = Histone deacetylase 9 (Homo sapiens, UniProt Q9UKV0); assay: Inhibition of human recombinant HDAC9
Sequence of Histone deacetylase 9 (Q9UKV0 whole entry): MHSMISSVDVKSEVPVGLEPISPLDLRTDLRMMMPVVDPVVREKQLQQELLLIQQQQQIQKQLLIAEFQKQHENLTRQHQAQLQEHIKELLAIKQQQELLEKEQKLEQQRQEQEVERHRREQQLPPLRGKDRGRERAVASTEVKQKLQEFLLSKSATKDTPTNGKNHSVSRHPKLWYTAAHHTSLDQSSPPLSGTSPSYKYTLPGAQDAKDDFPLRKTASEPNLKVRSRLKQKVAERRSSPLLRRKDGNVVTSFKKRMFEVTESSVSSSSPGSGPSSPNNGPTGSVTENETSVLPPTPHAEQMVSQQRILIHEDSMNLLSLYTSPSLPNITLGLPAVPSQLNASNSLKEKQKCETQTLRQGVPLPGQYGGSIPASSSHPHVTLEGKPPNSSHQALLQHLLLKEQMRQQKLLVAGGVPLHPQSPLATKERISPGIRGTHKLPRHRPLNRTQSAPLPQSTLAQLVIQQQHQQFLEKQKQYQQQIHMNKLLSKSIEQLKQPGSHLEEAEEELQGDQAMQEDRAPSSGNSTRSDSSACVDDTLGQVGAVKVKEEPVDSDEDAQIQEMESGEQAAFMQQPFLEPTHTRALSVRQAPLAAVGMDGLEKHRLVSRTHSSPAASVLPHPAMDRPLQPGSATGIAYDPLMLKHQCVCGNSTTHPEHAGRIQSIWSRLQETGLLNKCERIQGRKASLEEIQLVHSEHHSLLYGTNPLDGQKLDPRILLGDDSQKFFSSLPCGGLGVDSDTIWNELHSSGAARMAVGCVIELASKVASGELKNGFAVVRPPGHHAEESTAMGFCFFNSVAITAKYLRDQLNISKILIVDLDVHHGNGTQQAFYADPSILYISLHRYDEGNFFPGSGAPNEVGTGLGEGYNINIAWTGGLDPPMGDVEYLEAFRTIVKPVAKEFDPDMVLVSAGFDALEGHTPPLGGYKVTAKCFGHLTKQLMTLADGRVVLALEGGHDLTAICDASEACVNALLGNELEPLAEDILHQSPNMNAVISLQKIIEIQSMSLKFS

Sequence of Histone deacetylase 3 (O15379 whole entry): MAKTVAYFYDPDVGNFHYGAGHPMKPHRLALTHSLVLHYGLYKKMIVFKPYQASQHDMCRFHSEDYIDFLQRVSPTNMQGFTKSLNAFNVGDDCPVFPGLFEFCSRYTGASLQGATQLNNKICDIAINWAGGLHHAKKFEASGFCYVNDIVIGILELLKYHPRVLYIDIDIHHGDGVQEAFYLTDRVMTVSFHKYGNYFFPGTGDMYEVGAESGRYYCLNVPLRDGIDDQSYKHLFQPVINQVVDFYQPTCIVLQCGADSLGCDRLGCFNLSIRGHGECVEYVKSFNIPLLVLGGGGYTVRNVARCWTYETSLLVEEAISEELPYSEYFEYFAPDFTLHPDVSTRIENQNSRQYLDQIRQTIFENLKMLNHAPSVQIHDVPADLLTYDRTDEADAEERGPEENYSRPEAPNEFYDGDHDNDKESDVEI
Sequence of Histone deacetylase 4 (P56524 whole entry): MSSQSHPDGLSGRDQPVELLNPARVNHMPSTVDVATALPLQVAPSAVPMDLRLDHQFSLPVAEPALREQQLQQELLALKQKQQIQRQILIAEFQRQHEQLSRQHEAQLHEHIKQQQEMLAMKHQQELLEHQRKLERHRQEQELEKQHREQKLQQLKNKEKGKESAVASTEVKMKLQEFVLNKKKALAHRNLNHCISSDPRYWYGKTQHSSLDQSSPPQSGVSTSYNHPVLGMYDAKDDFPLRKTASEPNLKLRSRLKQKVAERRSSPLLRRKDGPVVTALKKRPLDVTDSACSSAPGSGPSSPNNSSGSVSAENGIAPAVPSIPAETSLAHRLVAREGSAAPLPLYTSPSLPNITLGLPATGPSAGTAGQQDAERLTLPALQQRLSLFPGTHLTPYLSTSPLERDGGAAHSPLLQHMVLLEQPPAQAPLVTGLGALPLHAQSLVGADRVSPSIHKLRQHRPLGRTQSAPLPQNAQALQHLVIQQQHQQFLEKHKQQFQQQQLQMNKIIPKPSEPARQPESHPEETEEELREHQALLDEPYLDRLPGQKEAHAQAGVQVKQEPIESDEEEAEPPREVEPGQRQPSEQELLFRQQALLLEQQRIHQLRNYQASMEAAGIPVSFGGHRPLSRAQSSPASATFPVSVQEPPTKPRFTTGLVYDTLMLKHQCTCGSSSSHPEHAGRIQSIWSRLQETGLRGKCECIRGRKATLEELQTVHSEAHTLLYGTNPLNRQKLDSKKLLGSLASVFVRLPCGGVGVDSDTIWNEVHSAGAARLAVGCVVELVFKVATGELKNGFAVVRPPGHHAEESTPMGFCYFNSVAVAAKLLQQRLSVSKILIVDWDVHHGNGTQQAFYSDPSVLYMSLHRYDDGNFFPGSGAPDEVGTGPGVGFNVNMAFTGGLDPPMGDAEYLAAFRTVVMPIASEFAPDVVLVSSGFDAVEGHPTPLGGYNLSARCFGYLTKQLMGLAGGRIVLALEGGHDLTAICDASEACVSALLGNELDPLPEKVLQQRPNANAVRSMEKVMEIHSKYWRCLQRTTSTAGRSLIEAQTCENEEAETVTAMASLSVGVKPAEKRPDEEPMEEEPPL
Sequence of Histone deacetylase 2 (Q92769 whole entry): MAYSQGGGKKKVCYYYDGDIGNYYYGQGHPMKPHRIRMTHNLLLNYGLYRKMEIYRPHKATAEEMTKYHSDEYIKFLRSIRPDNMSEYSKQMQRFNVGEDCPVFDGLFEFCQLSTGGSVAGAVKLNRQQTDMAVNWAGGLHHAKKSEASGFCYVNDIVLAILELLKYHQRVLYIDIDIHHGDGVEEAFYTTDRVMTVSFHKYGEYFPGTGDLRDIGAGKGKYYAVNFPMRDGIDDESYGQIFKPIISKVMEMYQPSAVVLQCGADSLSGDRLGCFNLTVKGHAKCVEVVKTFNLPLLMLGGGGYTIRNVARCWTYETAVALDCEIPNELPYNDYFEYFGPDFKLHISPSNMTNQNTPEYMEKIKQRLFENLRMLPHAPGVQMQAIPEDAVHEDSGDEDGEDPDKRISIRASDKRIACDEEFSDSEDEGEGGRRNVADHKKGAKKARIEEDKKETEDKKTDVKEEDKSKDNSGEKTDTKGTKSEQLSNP
Sequence of Histone deacetylase 1 (Q13547 whole entry): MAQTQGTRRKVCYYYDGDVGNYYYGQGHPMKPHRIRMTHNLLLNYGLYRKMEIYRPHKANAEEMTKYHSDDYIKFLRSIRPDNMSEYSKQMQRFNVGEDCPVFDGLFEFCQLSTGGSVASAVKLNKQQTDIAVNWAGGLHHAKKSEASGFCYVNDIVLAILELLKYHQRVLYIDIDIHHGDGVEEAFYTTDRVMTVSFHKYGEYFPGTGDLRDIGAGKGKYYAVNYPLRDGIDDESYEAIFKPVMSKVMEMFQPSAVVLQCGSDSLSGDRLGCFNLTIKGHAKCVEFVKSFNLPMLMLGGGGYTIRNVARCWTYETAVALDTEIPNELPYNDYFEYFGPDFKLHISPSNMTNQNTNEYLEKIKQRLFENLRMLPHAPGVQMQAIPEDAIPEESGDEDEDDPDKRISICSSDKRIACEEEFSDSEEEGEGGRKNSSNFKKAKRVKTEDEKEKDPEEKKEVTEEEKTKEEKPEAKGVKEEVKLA

SMILES | IC50 (Histone deacetylase) [µM] | IC50 (HeLa; 48 h) [µM] | inhibition [4] [%] | other results
O=C(CCCCCCC(=O)Nc1ccccc1)NO [VORINOSTAT] | – | – | – | Activity (P388 [1]): 14%; Activity (P388 [2]): 11%; Activity (P388 [3]): 0%
O=C(/C=C/c1ccc2cccnc2c1)NCCCCCC(=O)NO | – | 12.3 | – | Activity (P388 [2]): 0%; Activity (P388 [3]): 111%
O=C(/C=C/c1ccncc1)NCCCCCC(=O)NO.O=C(O)C(=O)O | 0.101 | 46.4 | – | –
O=C(/C=C/c1cccnc1)NCCCCCC(=O)NO.O=C(O)C(=O)O | 0.141 | 28.4 | – | –
O=C(CCCCCNC(=O)CCc1ccccc1)NO | – | 74.8 | 27 | –
O=C(CCCCCNC(=O)CCCc1ccccc1)NO | – | 52.7 | 19 | –
O=C(CCCCCCC(=O)NCc1ccccc1)NO | – | 44.2 | 39 | –
CN(C)c1ccc(CC(=O)NCCCCCC(=O)NO)cc1 | – | 52.7 | 9 | –
O=C(C#Cc1ccccc1)NCCCCCC(=O)NO | 0.062 | – | – | IC50 (HeLa; 4 h): 10.6 µM
O=C(C=C1c2ccccc2-c2ccccc21)NCCCCCC(=O)NO | 0.005 | 1.7 | – | IC50 (Histone deacetylase 1): 0.0016 µM; IC50 (Histone deacetylase 2): 0.0008 µM; IC50 (Histone deacetylase 3): 0.0028 µM; IC50 (Histone deacetylase 4): 0.0012 µM; IC50 [5]: 0.002 µM; IC50 (Histone deacetylase 8): 0.779 µM; IC50 (Histone deacetylase 9): 0.0023 µM; Activity (P388 [2]): 11%; Activity (P388 [3]): 78%
O=C(CCCCCCC(=O)NCCc1ccccc1)NO | – | 13.3 | 46 | –
O=C(/C=C/c1ccc(Cl)cc1F)NCCCCCC(=O)NO | – | 6.3 | – | Activity (P388 [2]): 0%; Activity (P388 [3]): 22%
O=C(C=C1c2ccccc2CCc2ccccc21)NCCCCCC(=O)NO | 0.338 | 9.9 | – | –
CC(/C=C/C(=O)NCCCC(=O)NO)=C\c1ccccc1 | 22.85 | 114 | – | –
O=C(CCCCCNC(=O)CCCCc1ccccc1)NO | – | 70.8 | 51 | –
CN(C)c1ccc(C(=O)NCCCCCC(=O)NO)cc1 | – | 4.1 | – | –
O=C(CCCCCNC(=O)Cc1ccc(-c2ccccc2)cc1)NO | – | 35.9 | 51 | –

The next lines start with results.

IC50 (Histone deacetylase) [µM] | IC50 (HeLa; 48 h) [µM] | inhibition [4] [%] | SMILES | other results
0.201 | 8.5 | – | O=C(C=C(c1ccccc1)c1ccccc1)NCCCCCC(=O)NO | –
0.032 | 5.5 | – | O=C(/C=C/c1ccccc1)NCCCCCC(=O)NO | –
– | 24 | 53 | O=C(CCCCCNC(=O)C/C=C/c1ccccc1)NO | –
0.038 | 2.6 | – | O=C(CCCCCNC(=O)c1ccc(-c2ccccc2)cc1)NO | –
0.025 | 20.9 | – | O=C(/C=C/c1cccc2cccnc12)NCCCCCC(=O)NO | –
0.007 | 18.3 | – | O=C(/C=C/c1ccc2ccccc2c1)NCCCCCC(=O)NO | –
0.625 | 20.6 | – | O=C(CCCCCNC(=O)CC/C=C/c1ccccc1)NO | –
0.028 | 3.6 | – | O=C(CCCCCCCNC(=O)c1ccc2ccccc2c1)NO | –
– | 0.4 | – | O=C(CCCCCCNC(=O)c1ccc2ccccc2c1)NO | –
– | 24.7 | 42 | O=C(CCCCNC(=O)c1ccc2ccccc2c1)NO | –
0.046 | 9.5 | – | O=C(/C=C/c1ccccn1)NCCCCCC(=O)NO.O=C(O)C(=O)O | –
0.029 | 5.1 | – | O=C(/C=C/C=C/c1ccccc1)NCCCCCC(=O)NO | –
– | 4.8 | – | CC(/C=C/c1ccccc1)=C\C(=O)NCCCCCC(=O)NO | –
